Patent publication US9179678B2, “Substituted [1,2,4]triazoles and substituted tetrazoles as herbicides” (SYNGENTA LIMITED, priority 2012, dated 2015)

What was measured:
Type in all cases: in vivo
[1] = test system: Alopecurus myosuroides (ALOMY); assay: Post-emergence glasshouse herbicide test; settings: POST Application, 1000 g/h, after 13 days
Method in brief: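 Alopecurus myosuroides seeds were sown in pots of standard soil and grown for 8 days in a glasshouse at 24/16° C. day/night, 14 hours light and 65% humidity. The plants were then sprayed post-emergence with an aqueous solution made from the active ingredient in acetone/water (50:50) containing 0.5% Tween 20. Percentage plant damage was scored 13 days later.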

[2] = test system: Amaranthus retoflexus (AMARE); assay: Post-emergence glasshouse herbicide test; settings: POST Application, 1000 g/h, after 13 days
[3] = test system: Echinochloa crus-galli (ECHCG); assay: Post-emergence glasshouse herbicide test; settings: POST Application, 1000 g/h, after 13 days
[4] = test system: Ipomoea hederacea (IPOHE); assay: Post-emergence glasshouse herbicide test; settings: POST Application, 1000 g/h, after 13 days
Solanum nigrum (SOLNI) [5] = assay: Post-emergence glasshouse herbicide test; settings: POST Application, 1000 g/h, after 13 days
Method in brief: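 Solanum nigrum seeds were sown in pots of standard soil and grown for 8 days in a glasshouse at 24/16° C. day/night, 14 hours light and 65% humidity. Plants were then sprayed post-emergence with the active ingredient formulated in acetone/water (50:50) containing 0.5% Tween 20. They were grown on under the same conditions with twice-daily watering, and percentage plant damage was scored after 13 days.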

Setaria faberi (SETFA) [6] = assay: Post-emergence glasshouse herbicide test; settings: POST Application, 1000 g/h, after 13 days
Method in brief: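 Setaria faberi seeds were sown in standard soil in pots and grown for 8 days in a glasshouse at 24/16° C. day/night, 14 hours light and 65% humidity. Plants were then sprayed post-emergence with the active ingredient in acetone/water (50:50) containing 0.5% Tween 20, regrown under the same conditions with twice-daily watering, and scored for percentage damage after 13 days.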

[7] = test system: Alopecurus myosuroides (ALOMY); assay: Pre-emergence glasshouse herbicide test; settings: PRE Application, 1000 g/h, after 13 days
Method in brief: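 Alopecurus myosuroides seeds were sown in standard soil in pots and kept one day in a glasshouse at 24/16° C. day/night, 14 hours light and 65% humidity. The soil was then sprayed pre-emergence with the active ingredient in acetone/water (50:50) containing 0.5% Tween 20. Plants grew on, watered twice daily, and percentage damage was scored 13 days later.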

[8] = test system: Amaranthus retoflexus (AMARE); assay: Pre-emergence glasshouse herbicide test; settings: PRE Application, 1000 g/h, after 13 days
[9] = test system: Echinochloa crus-galli (ECHCG); assay: Pre-emergence glasshouse herbicide test; settings: PRE Application, 1000 g/h, after 13 days
[10] = test system: Ipomoea hederacea (IPOHE); assay: Pre-emergence glasshouse herbicide test; settings: PRE Application, 1000 g/h, after 13 days
Setaria faberi (SETFA) [11] = assay: Pre-emergence glasshouse herbicide test; settings: PRE Application, 1000 g/h, after 13 days
Solanum nigrum (SOLNI) [12] = assay: Pre-emergence glasshouse herbicide test; settings: PRE Application, 1000 g/h, after 13 days

SMILES | percentage damage caused to the plant, ALOMY [1] | percentage damage caused to the plant, AMARE [2] | percentage damage caused to the plant, ECHCG [3] | percentage damage caused to the plant, IPOHE [4] | percentage damage caused to the plant, SOLNI (Solanum nigrum (SOLNI) [5]) | percentage damage caused to the plant, SETFA (Setaria faberi (SETFA) [6]) | percentage damage caused to the plant, ALOMY [7] | percentage damage caused to the plant, AMARE [8] | percentage damage caused to the plant, ECHCG [9] | percentage damage caused to the plant, IPOHE [10] | percentage damage caused to the plant, SETFA (Setaria faberi (SETFA) [11]) | percentage damage caused to the plant, SOLNI (Solanum nigrum (SOLNI) [12])
Cn1nnnc1NC(=O)c1cc2cc(F)cnc2n(-c2ccccc2)c1=O [Compound 6.001] | 3 (3=40-59%) | 5 (5=80-100%) | 5 (5=80-100%) | 5 (5=80-100%) | 5 (5=80-100%) | 3 (3=40-59%) | 1 (1=0-19%) | 4 (4=60-79%) | 3 (3=40-59%) | 4 (4=60-79%) | 1 (1=0-19%) | 5 (5=80-100%)
Cc1nc2c(cc1F)cc(C(=O)Nc1nnnn1C)c(=O)n2-c1ccsc1 [Compound 6.002] | 1 (1=0-19%) | 5 (5=80-100%) | 4 (4=60-79%) | 5 (5=80-100%) | 5 (5=80-100%) | 2 (2=20-39%) | 1 (1=0-19%) | 5 (5=80-100%) | 1 (1=0-19%) | 2 (2=20-39%) | 1 (1=0-19%) | 4 (4=60-79%)
Cc1nc2c(cc1F)cc(C(=O)Nc1nnnn1C)c(=O)n2-c1ccccc1 [Compound 6.003] | 1 (1=0-19%) | 5 (5=80-100%) | 4 (4=60-79%) | 5 (5=80-100%) | 5 (5=80-100%) | 3 (3=40-59%) | 1 (1=0-19%) | 5 (5=80-100%) | 3 (3=40-59%) | 3 (3=40-59%) | 1 (1=0-19%) | 5 (5=80-100%)
Cn1nnnc1NC(=O)c1cc2ccccc2n(-c2ccccc2)c1=O [Compound 7.001] | 1 (1=0-19%) | 3 (3=40-59%) | 2 (2=20-39%) | 2 (2=20-39%) | 4 (4=60-79%) | 1 (1=0-19%) | 1 (1=0-19%) | 2 (2=20-39%) | 1 (1=0-19%) | 1 (1=0-19%) | 1 (1=0-19%) | 1 (1=0-19%)
Cn1nnnc1NC(=O)c1cc2ccccc2n(-c2ccsc2)c1=O [Compound 7.002] | 1 (1=0-19%) | 3 (3=40-59%) | 2 (2=20-39%) | 2 (2=20-39%) | 5 (5=80-100%) | 1 (1=0-19%) | 1 (1=0-19%) | 2 (2=20-39%) | 1 (1=0-19%) | 2 (2=20-39%) | 1 (1=0-19%) | 3 (3=40-59%)
Cn1nnnc1NC(=O)c1cc2ccncc2n(-c2ccccc2)c1=O [Compound 8.001] | 1 (1=0-19%) | 5 (5=80-100%) | 4 (4=60-79%) | 3 (3=40-59%) | 5 (5=80-100%) | 1 (1=0-19%) | 1 (1=0-19%) | 5 (5=80-100%) | 1 (1=0-19%) | 1 (1=0-19%) | 1 (1=0-19%) | 2 (2=20-39%)
